Results as given in patent US12012413B2, “Methods of treating painful diabetic peripheral neuropathy” (Tenacia Biotechnology (Hong Kong) Co., Limited, priority 2019, dated 2024).
Converted amounts (≈) assume the structure as drawn. Like-named read-outs stand apart in the source and are kept apart here.

Columns and labels:
Assay type in all cases: physicochemical
[1] = Stability of monohydrate drug substance and oral capsules on storage
Description: NYX-2925 monohydrate drug product was formulated with the pharmaceutically acceptable excipients: microcrystalline cellulose, starch, and magnesium stearate.

[2] = Approximate solubility by stepwise dilution in solvents and solvent mixtures; settings: 22 °C, about 22° C., read-out: Solubility S
Method: Approximate solubilities were determined by a stepwise dilution of a suspension of about 10 mg of substance in 0.05 mL of solvent. If the substance was not dissolved by addition of a total of at least 10 ml solvent, the solubility was indicated as <1 mg/mL. For all experiments, analytical grade solvents were used.
The approximate solubility of crystalline, monohydrate Form MH of NYX-2925 across a range of solvents and solvent mixtures (expressed in volume ratios measured at about 22° C.) is provided in Table 8, below.

[3] = Solubility and stability of saturated solutions in pH 2-8 buffers at 25° C. (HPLC); settings: for solubility at 1 day / solubility at 4 days / solubility at 7 days: ca. 25° C., read-out: solubility in an aqueous solvent; for solubility at 1 day: after about 1 day; for solubility at 4 days: after about 4 days; for solubility at 7 days: after about 7 days
Method: Crystalline, monohydrate Form MH of (2S,3R)-3-hydroxy-2-((R)-5-isobutyryl-1-oxo-2,5-diazaspiro[3.4]octan-2-yl)butanamide was prepared as follows. Saturated solutions of 3-hydroxy-2-(5-isobutyryl-1-oxo-2,5-diazaspiro[3.4]octan-2-yl)butanamide were prepared in pH 2, pH 3, pH 5, pH 7, and pH 8 buffers and were stirred at 25° C. Aliquots were taken after 1 day, 4 days, and 7 days and centrifuged at 12,500 rpm for 15 minutes. The supernatant was analyzed for sample concentration by HPLC, and the residual solids were analyzed by XRPD after 1 day, 4 days, and 7 days.

[4] = Dynamic vapor sorption (DVS) profile
Description: FIG. 4 depicts the dynamic sorption vapor (DVS) profile of crystalline, monohydrate Form MH of NYX-2925. […] This is a fully reversible process and the sample loses this water when decreasing the relative humidity with a negligible hysteresis. At low relative humidity there is the release and uptake of about 5.5 wt. % in the range of about 0% to about 15% relative humidity with about 10% relative humidity hysteresis. The monohydrate Form MH of NYX-2925 retains about 5.7 weight % water content, corresponding to the stoichiometric water content of the, monohydrate, over the range of about 10% to about 80% relative humidity with less than 0.5 wt. % change. There is minimal water uptake above 80% relative humidity and about 1 weight % gain in the 90% to 95% relative humidity range.

[5] = Solid form conversion / physical stability (XRPD); settings: ambient conditions of temperature and humidity; versus anhydrous Forms A, B, and C
Method: X-ray powder diffraction (XRPD) analysis was carried out on a Stoe Stadi P with Mythen1K detector; Cu-Kα1 radiation; 40 kV and 40 mA tube power; curved Ge monochromator; 0.02° 2θ step size, 12 s step time, 1.5-50.5° 2θ scanning range; detector mode: step scan; 1° 2θ detector step. The sample (about 20 mg) was placed between two acetate foils and clamped in a Stoe transmission sample holder. The sample holder was rotated during the measurement.
X-ray powder diffraction (XRPD) analysis was also carried out on a on a Bruker D8 Advance; Cu-Kα radiation; standard measurement conditions: Bragg-Brentano reflection geometry; 40 kV and 40 mA tube power; LynxEye detector; 0.02° 2θ step size, 37 s step time, 2.5-50.5° 2θ scanning range (about 10 min measurement time. The sample was spread on a silicon single crystal substrate without cavity and flattened to fit to the 0.1 mm depth of the sample holder.
Crystalline, anhydrous Form C material of 3-hydroxy-2-(5-isobutyryl-1-oxo-2,5-diazaspiro[3.4]octan-2-yl)butanamide is not stable in comparison to anhydrous Form A or anhydrous Form B under ambient conditions of temperature and humidity. […] In turn, anhydrous Form A and anhydrous Form B each convert to monohydrate Form MH under the conditions described above.

[6] = aqueous buffer, pH 2, aqueous buffer, thermodynamic from solid, pH of about 2
[7] = aqueous buffer, pH 3, aqueous buffer, thermodynamic from solid, pH of about 3
[8] = aqueous buffer, pH 5, aqueous buffer, thermodynamic from solid, pH of about 5
[9] = aqueous buffer, pH 7, aqueous buffer, thermodynamic from solid, pH of about 7
[10] = aqueous buffer, pH 8, aqueous buffer, thermodynamic from solid, pH of about 8

CC(C)C(=O)N1CCC[C@]12CN([C@H](C(N)=O)[C@@H](C)O)C2=O [Form MH, (2S,3R)-3-hydroxy-2-((R)-5-isobutyryl-1-oxo-2,5-diazaspiro[3.4]octan-2-yl)butanamide]
changes in impurity profile or other quality attributes (appearance, assay, water content, microbial examination, XRPD) ([1]; 6 months at 40° C./75% relative humidity): no significant changes | changes in impurity profile or other quality attributes (appearance, assay, water content, microbial examination, XRPD) ([1]; 12 months at 25° C./60% relative humidity): no significant changes | solubility ([2]; 1,4-dioxane, organic solvent or mixture, thermodynamic from solid, 1,4-dioxane): 28 to 31 mg/mL (≈ 94.2 to 104 mM) | solubility ([2]; 1/1 dichloromethane/methanol (v/v), organic solvent or mixture, thermodynamic from solid, 1/1 dichloromethane/methanol (volume ratio)): > 200 mg/mL | solubility ([2]; 1/1 ethanol/water (v/v), aqueous with cosolvent or surfactant or cyclodextrin, thermodynamic from solid, 1/1 ethanol/water (volume ratio)): 69 to 103 mg/mL | solubility ([2]; 1/1 isopropanol/water (v/v), aqueous with cosolvent or surfactant or cyclodextrin, thermodynamic from solid, 1/1 isopropanol/water (volume ratio)): 71 to 107 mg/mL | solubility ([2]; 1/1 methanol/water (v/v), aqueous with cosolvent or surfactant or cyclodextrin, thermodynamic from solid, 1/1 methanol/water (volume ratio)): > 200 mg/mL | solubility ([2]; 10/1 ethyl acetate/ethanol (v/v), organic solvent or mixture, thermodynamic from solid, 10/1 ethyl acetate/ethanol (volume ratio)): 32 to 39 mg/mL | solubility ([2]; 10/1 isopropanol/water (v/v), organic solvent or mixture, thermodynamic from solid, 10/1 isopropanol/water (volume ratio)): 36 to 41 mg/mL | solubility ([2]; acetone, organic solvent or mixture, thermodynamic from solid, acetone): 57 to 76 mg/mL (≈ 192 to 256 mM) | solubility ([2]; acetonitrile, organic solvent or mixture, thermodynamic from solid, acetonitrile): 118 to 230 mg/mL (≈ 397 to 773 mM) | solubility ([2]; aniline, organic solvent or mixture, thermodynamic from solid, aniline): > 200 mg/mL | solubility ([2]; anisole, organic solvent or mixture, thermodynamic from solid, anisole): ~3 mg/mL (≈ 10.1 mM) | solubility ([2]; cyclohexane, organic solvent or mixture, thermodynamic from solid, cyclohexane): ~1 mg/mL (≈ 3.36 mM) | solubility ([2]; dichloromethane, organic solvent or mixture, thermodynamic from solid, dichloromethane): 55 to 73 mg/mL (≈ 185 to 245 mM) | solubility ([2]; diisopropyl ether, organic solvent or mixture, thermodynamic from solid, diisopropyl ether): < 1 mg/mL | solubility ([2]; dimethyl sulfoxide, organic solvent or mixture, thermodynamic from solid, dimethyl sulfoxide): > 200 mg/mL | solubility ([2]; dimethylformamide, organic solvent or mixture, thermodynamic from solid, dimethylformamide): > 200 mg/mL | solubility ([2]; ethanol, organic solvent or mixture, thermodynamic from solid, ethanol): > 200 mg/mL | solubility ([2]; ethyl acetate saturated with water, organic solvent or mixture, thermodynamic from solid, ethyl acetate saturated with water): 6 to 8 mg/mL (≈ 20.2 to 26.9 mM) | solubility ([2]; ethyl acetate, organic solvent or mixture, thermodynamic from solid, ethyl acetate): 13 to 15 mg/mL (≈ 43.7 to 50.4 mM) | solubility ([2]; heptane, organic solvent or mixture, thermodynamic from solid, heptane): < 1 mg/mL | solubility ([2]; isopropanol, organic solvent or mixture, thermodynamic from solid, isopropanol): 45 to 60 mg/mL (≈ 151 to 202 mM) | solubility ([2]; isopropyl acetate, organic solvent or mixture, thermodynamic from solid, isopropyl acetate): 5 to 6 mg/mL (≈ 16.8 to 20.2 mM) | solubility ([2]; methanol, organic solvent or mixture, thermodynamic from solid, methanol): > 200 mg/mL | solubility ([2]; methyl ethyl ketone, organic solvent or mixture, thermodynamic from solid, methyl ethyl ketone): 32 to 38 mg/mL (≈ 108 to 128 mM) | solubility ([2]; tert-butyl methyl ether saturated with water, organic solvent or mixture, thermodynamic from solid, tert-butyl methyl ether saturated with water): < 1 mg/mL | solubility ([2]; tert-butyl methyl ether, organic solvent or mixture, thermodynamic from solid, tert-butyl methyl ether): < 1 mg/mL | solubility ([2]; tetrahydrofuran, organic solvent or mixture, thermodynamic from solid, tetrahydrofuran): 31 to 36 mg/mL (≈ 104 to 121 mM) | solubility ([2]; toluene, organic solvent or mixture, thermodynamic from solid, toluene): < 1 mg/mL | solubility ([2]; triethylamine, organic solvent or mixture, thermodynamic from solid, triethylamine): < 1 mg/mL | solubility ([2]; water, water, thermodynamic from solid, water): 26 to 30 mg/mL (≈ 87.4 to 101 mM) | solubility at 1 day [3, 6]: ~54.1 mg/mL (≈ 182 mM) | solubility at 4 days [3, 6]: ~53.5 mg/mL (≈ 180 mM) | solubility at 7 days [3, 6]: ~53.5 mg/mL (≈ 180 mM) | solubility at 1 day [3, 7]: ~54.2 mg/mL (≈ 182 mM) | solubility at 4 days [3, 7]: ~53.2 mg/mL (≈ 179 mM) | solubility at 7 days [3, 7]: ~52.4 mg/mL (≈ 176 mM) | solubility at 1 day [3, 8]: ~52.5 mg/mL (≈ 177 mM) | solubility at 4 days [3, 8]: ~53.2 mg/mL (≈ 179 mM) | solubility at 7 days [3, 8]: ~52.4 mg/mL (≈ 176 mM) | solubility at 1 day [3, 9]: ~52.6 mg/mL (≈ 177 mM) | solubility at 4 days [3, 9]: ~53 mg/mL (≈ 178 mM) | solubility at 7 days [3, 9]: ~52.3 mg/mL (≈ 176 mM) | solubility at 1 day [3, 10]: ~52.7 mg/mL (≈ 177 mM) | solubility at 4 days [3, 10]: ~51.6 mg/mL (≈ 174 mM) | solubility at 7 days [3, 10]: ~52.6 mg/mL (≈ 177 mM) | solubility thermodynamic at 7 days ([3]; pH 2, pH 3, pH 5, pH 7 and pH 8 buffers, aqueous buffer, thermodynamic from solid, pH ranges of 2-8, 25° C., after 7 days, read-out: saturated concentration in buffers): ~50 mg/mL (≈ 168 mM) | stability in saturated buffer solutions (HPLC analysis) ([3]; pH ranges of 2-8, 25° C., after 7 days): stable | DVS weight gain ([4]; 90% to 95% relative humidity range): about 1 weight % | DVS release and uptake of water (reversible weight loss) ([4]; about 0% to about 15% relative humidity, about 10% RH hysteresis): about 5.5 wt. % | DVS water content retained ([4]; about 10% to about 80% relative humidity): about 5.7 weight % | DVS continuous reversible uptake of water ([4]; from about 50% to about 95% relative humidity, mainly above 90%): about 1.5 wt. % | DVS change in water content ([4]; over about 10% to about 80% relative humidity): less than 0.5 wt. % | relative stability of crystalline forms [5]: more stable
